Test results as given in paper PMC4198181, “Gold(I) Complexes of 9-Deazahypoxanthine as Selective Antitumor and Anti-Inflammatory Agents” (PLoS ONE, 2014).

Key:
[1] = test system: HOS osteosarcoma cells; experiment: MTT in vitro cytotoxicity, HOS; type: cell-based, human; conditions: 24 h treatment, read-out: IC50±S.E., HOS
Experimental: (§1) In vitro cytotoxic activity was determined by the MTT assay in human breast adenocarcinoma (MCF7; ECACC no. 86012803), human osteosarcoma (HOS; ECACC no. 87070202), lung carcinoma (A549; ECACC no. 86012804), malignant melanoma (G361; ECACC no. 88030401), cervix epitheloid carcinoma (HeLa; ECACC no. 93021013), ovarian carcinoma (A2780; ECACC no. 93112519), cisplatin-resistant ovarian carcinoma (A2780R; […] ECACC no 105092802) cancer cell lines, purchased from European Collection of Cell Cultures (ECACC). […] The primary culture of human hepatocytes (HEP220, batch number HEP220819) was obtained from Biopredic International (France). The culture medium was Williams and HAM's F-12 (1∶1) supplemented with penicillin, streptomycin, ascorbic acid, linoleic acid, holo-transferin, ethanolamine, glucagon, insulin, dexamethasone, pyruvate, glucose, glutamine, amphotericin. The medium was enriched for plating with 2% foetal calf serum (v/v). The medium was exchanged for a serum-free medium the day after and the culture was stabilized for additional 24 h. Thereafter, the cells were ready for treatments. […] The MTT assay was performed spectrophotometrically at 540 nm (TECAN, Schoeller Instruments LLC). The cytotoxicity data were expressed as the percentage of viability, where 100% represented the treatments with vehicle (0.1% DMF or 0.1% DMSO). The cytotoxicity data from the cancer cell lines were acquired from three independent experiments (conducted in triplicate) using cells from different passages. The IC50 values were calculated from viability curves. The results are presented as arithmetic means±standard error of the mean (S.E.).

[2] = test system: A2780 ovarian carcinoma cells; experiment: MTT in vitro cytotoxicity, A2780; type: cell-based, human; conditions: 24 h treatment, read-out: IC50±S.E., A2780
Experimental: as §1

[3] = test system: 22Rv1 prostate carcinoma cells; experiment: MTT in vitro cytotoxicity, 22Rv1; type: cell-based, human; conditions: 24 h treatment, read-out: IC50±S.E., 22Rv1
Experimental: as §1

[4] = test system: λ-carrageenan-induced hind paw edema; experiment: Carrageenan-induced hind paw edema; type: in vivo, Wistar-SPF rats
Experimental: Wistar-SPF (6–8 weeks male) rats were obtained from AnLab, Ltd. (Prague, Czech Republic). The animals were kept in plexiglass cages at the constant temperature of 22±1°C and relative humidity of 55±5% for at least 1 week before the experiment. They were given food and water ad libitum. All the experimental procedures were performed according to the National Institutes of Health (NIH) Guide for the Care and Use of Laboratory Animals. In addition, all the tests were conducted under the guidelines of the International Association for the Study of Pain [61]. After a one-week adaptation period, male Wistar-SPF rats (200–250 g) were randomly assigned to five groups (n = 7) of the animals in the study. The first, control group, received 25% DMSO (v/v in water, intraperitoneal; i.p.). The next three groups were pretreated with complexes 2, 4 and 5, and involved into the carrageenan-treatment. The fifth group was treated with a non-steroidal anti-inflammatory drug Indomethacin (5 mg/kg), which served as a positive control group (Indomethacin + carrageenan).
The carrageenan-induced hind paw edema model was used for the determination of anti-inflammatory activity. Animals were i.p. pretreated with complexes 2, 4, and 5 (the dosages of the individual complexes were adjusted to contain the same amount of gold as in 10 mg/kg dose of Auranofin), Indomethacin (5 mg/kg), or 25% DMSO (v/v in water) 30 min prior to the injection of 1% λ-carrageenan solution (50 µL) into the plantar side of right hind paws of the rats. The paw volume was measured immediately after the carrageenan injection (this value was set-up as baseline value for the hind paw volume) and during the next 6 h after the administration of the edematogenic agent using a plethysmometer (model 7159, Ugo Basile, Varese, Italy). The degree of swelling was evaluated as a percentage of the change of the volume of the right hind paw after the carrageenan treatment from the baseline volume. A non-steroidal anti-inflammatory drug Indomethacin was used as a positive control and the obtained data were also compared with the previously reported profile of antiedematous activity for Auranofin [38]. After 6 h, the animals were sacrificed and the edematous feet were dissected, the tissue from the plantar parts was extracted, fixed and stained by a standard hematoxylin/eosin (HE) staining for cytological evaluation of polymorphonuclear cells infiltration.
The statistically significant differences between individual groups during anti- inflammatory testing were evaluated using a one-way ANOVA test for statistical analysis, followed by Tukey's post-hoc test for multiple comparisons. GraphPad Prism 5.02 (GraphPad Software Inc., San Diego, CA, USA) was used to perform the analysis. The results are presented as arithmetic means±S.E. values.

[5] = i.p., dose equivalent in gold to 10 mg/kg Auranofin

SMILES: CC(C)Oc1ncnc2cc[n]([Au])c12.c1ccc(P(c2ccccc2)c2ccccc2)cc1 [complex 2, [Au(L2)(PPh3)]]
- IC50 [1]: 0.9 ± 0.2 µM
- IC50 [2]: 4 ± 0.2 µM
- IC50 [3]: 4 ± 0.1 µM
- antiedematous effect compared with Auranofin ([4]; after 180 min, p<0.001, Auranofin profile from ref 38): even better than that of gold-containing metallodrug Auranofin
- overall antiedematous / anti-inflammatory activity [4, 5]: significant anti-inflammatory effects
- antiedematous activity profile up to 180 min after carrageenan ([4]; i.p., dose equivalent in gold to 10 mg/kg Auranofin, 30 min before carrageenan): very similar pharmacological profiles of complexes 2 and 4 with the reference drug Indomethacin
- antiedematous activity after 180 min ([4]; i.p., dose equivalent in gold to 10 mg/kg Auranofin, up to 6 h): elimination of hind paw swelling

SMILES: [Au][n]1ccc2ncnc(OCCc3ccccc3)c21.c1ccc(P(c2ccccc2)c2ccccc2)cc1 [complex 5]
- IC50 [1]: 2.9 ± 0.1 µM
- IC50 [2]: 4.4 ± 0.3 µM
- IC50 [3]: 3.7 ± 0.1 µM
- overall antiedematous / anti-inflammatory activity [4, 5]: inactive
